Laboratory results from patent publication US10023570B2 (Array BioPharma, Inc., priority 2015, dated 2018).
Where a name gives a salt, the structure may show the parent alone.

target: human KDR protein in HEK-293 cells (Homo sapiens (Human), UniProt P35968); test: KDR Cell Assay (phospho-KDR in HEK-293 cells expressing inducible KDR); assay type: cell-based; settings: pKDR Cell HEK 10% FBS IC50, HEK-293 cells expressing inducible KDR, VEGF stimulated, 10% FBS
Outline: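 HEK-293 cells with inducible human KDR were treated with compound for 1 h in DMEM (0.25% DMSO final), then lysed. Phospho-KDR was quantified by Meso Scale immunoassay, expressed as percent of control, and IC50 taken where a 4-parameter logistic fit crossed 50 POC.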

human KDR protein in HEK-293 cells, sequence (P35968 20-1356): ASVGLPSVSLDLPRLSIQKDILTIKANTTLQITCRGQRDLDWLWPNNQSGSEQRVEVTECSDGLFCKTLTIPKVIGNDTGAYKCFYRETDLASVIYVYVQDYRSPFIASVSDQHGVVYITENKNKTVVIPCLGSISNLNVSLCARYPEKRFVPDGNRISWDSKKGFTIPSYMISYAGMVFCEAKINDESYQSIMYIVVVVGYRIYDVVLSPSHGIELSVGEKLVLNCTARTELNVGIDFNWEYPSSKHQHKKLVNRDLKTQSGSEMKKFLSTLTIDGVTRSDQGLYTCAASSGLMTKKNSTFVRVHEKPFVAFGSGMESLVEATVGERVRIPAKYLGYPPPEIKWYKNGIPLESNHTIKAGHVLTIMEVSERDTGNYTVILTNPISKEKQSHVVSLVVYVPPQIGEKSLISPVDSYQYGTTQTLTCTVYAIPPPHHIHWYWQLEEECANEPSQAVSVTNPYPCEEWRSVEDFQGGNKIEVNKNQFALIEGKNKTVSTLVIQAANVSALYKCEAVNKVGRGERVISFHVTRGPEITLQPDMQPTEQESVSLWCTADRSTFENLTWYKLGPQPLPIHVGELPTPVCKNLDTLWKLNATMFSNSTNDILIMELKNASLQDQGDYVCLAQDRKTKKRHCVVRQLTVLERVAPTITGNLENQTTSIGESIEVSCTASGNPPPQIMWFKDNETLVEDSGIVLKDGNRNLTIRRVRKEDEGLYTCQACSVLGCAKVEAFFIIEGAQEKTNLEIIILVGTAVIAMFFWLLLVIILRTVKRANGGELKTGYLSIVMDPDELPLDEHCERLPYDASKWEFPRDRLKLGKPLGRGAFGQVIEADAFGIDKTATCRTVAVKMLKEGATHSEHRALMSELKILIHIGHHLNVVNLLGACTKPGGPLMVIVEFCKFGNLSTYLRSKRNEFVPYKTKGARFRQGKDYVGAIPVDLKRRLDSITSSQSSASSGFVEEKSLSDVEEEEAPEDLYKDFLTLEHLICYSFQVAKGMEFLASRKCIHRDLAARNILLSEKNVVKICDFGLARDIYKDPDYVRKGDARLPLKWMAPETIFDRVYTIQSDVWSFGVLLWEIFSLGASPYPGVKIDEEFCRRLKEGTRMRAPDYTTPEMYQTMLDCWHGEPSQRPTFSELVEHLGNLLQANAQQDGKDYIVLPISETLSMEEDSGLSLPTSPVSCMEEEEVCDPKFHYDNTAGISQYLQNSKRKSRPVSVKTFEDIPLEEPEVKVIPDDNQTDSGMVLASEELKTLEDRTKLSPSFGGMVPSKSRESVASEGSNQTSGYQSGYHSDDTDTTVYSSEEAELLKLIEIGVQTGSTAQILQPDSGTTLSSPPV

SMILES | IC50
CO[C@H]1CCN(C(=O)N2CCN(c3ccc(-c4cc(-c5cnn(C(F)F)c5)cn5ncc(C#N)c45)cn3)CC2)C1 [Example 269, (S)-6-(1-(difluoromethyl)-1H-pyrazol-4-yl)-4-(6-(4-(3-methoxypyrrolidine-1-carbonyl)piperazin-1-yl)pyridin-3-yl)pyrazolo[1,5-a]pyridine-3-carbonitrile] | 1700 nM
Cn1ccc(-c2cc(-c3ccc(N4CCN(C(=O)[C@H](O)c5ccccc5)CC4)nc3)c3c(C#N)cnn3c2)n1 [Example 272, (R)-4-(6-(4-(2-hydroxy-2-phenylacetyl)piperazin-1-yl)pyridin-3-yl)-6-(1-methyl-1H-pyrazol-3-yl)pyrazolo[1,5-a]pyridine-3-carbonitrile] | 575 nM
CC(C)CC(=O)N1CCN(c2ccc(-c3cc(-c4ccn(C)n4)cn4ncc(C#N)c34)cn2)CC1 [Example 273, 6-(1-methyl-1H-pyrazol-3-yl)-4-(6-(4-(3-methylbutanoyl)piperazin-1-yl)pyridin-3-yl)pyrazolo[1,5-a]pyridine-3-carbonitrile] | 2140 nM
CO[C@H]1CCN(C(=O)N2CCN(c3ccc(-c4cc(-c5ccn(C)n5)cn5ncc(C#N)c45)cn3)CC2)C1 [Example 274, (S)-4-(6-(4-(3-methoxypyrrolidine-1-carbonyl)piperazin-1-yl)pyridin-3-yl)-6-(1-methyl-1H-pyrazol-3-yl)pyrazolo[1,5-a]pyridine-3-carbonitrile] | ≥ 5000 nM
Cc1cc(-c2cc(-c3cnn(C)c3)cn3ncc(C#N)c23)cnc1N1CCN(C(=O)[C@H](O)c2ccccc2)CC1 [Example 278, (R)-4-(6-(4-(2-hydroxy-2-phenylacetyl)piperazin-1-yl)-5-methylpyridin-3-yl)-6-(1-methyl-1H-pyrazol-4-yl)pyrazolo[1,5-a]pyridine-3-carbonitrile] | 138 nM
Cn1cc(-c2cc(-c3cnc(N4CCN(C(=O)[C@H](O)c5ccccc5)CC4)nc3)c3c(C#N)cnn3c2)cn1 [Example 282, (R)-4-(2-(4-(2-hydroxy-2-phenylacetyl)piperazin-1-yl)pyrimidin-5-yl)-6-(1-methyl-1H-pyrazol-4-yl)pyrazolo[1,5-a]pyridine-3-carbonitrile] | 662 nM
CO[C@@H](C(=O)N1CCN(c2ncc(-c3cc(-c4cnn(C)c4)cn4ncc(C#N)c34)cn2)CC1)c1ccccc1 [Example 284, (R)-4-(2-(4-(2-methoxy-2-phenylacetyl)piperazin-1-yl)pyrimidin-5-yl)-6-(1-methyl-1H-pyrazol-4-yl)pyrazolo[1,5-a]pyridine-3-carbonitrile] | 663 nM
CC(C)[C@@H](O)C(=O)N1CCN(c2ncc(-c3cc(-c4cnn(C)c4)cn4ncc(C#N)c34)cn2)CC1 [Example 285, (R)-4-(2-(4-(2-hydroxy-3-methylbutanoyl)piperazin-1-yl)pyrimidin-5-yl)-6-(1-methyl-1H-pyrazol-4-yl)pyrazolo[1,5-a]pyridine-3-carbonitrile] | 1710 nM
CO[C@H]1CCN(C(=O)N2CCN(c3ncc(-c4cc(-c5cnn(C)c5)cn5ncc(C#N)c45)cn3)CC2)C1 [Example 286, (S)-4-(2-(4-(3-methoxypyrrolidine-1-carbonyl)piperazin-1-yl)pyrimidin-5-yl)-6-(1-methyl-1H-pyrazol-4-yl)pyrazolo[1,5-a]pyridine-3-carbonitrile] | 4830 nM
Cn1cc(-c2cc(-c3cnc(N4CCN(C(=O)[C@H](O)c5ccccc5)CC4)cn3)c3c(C#N)cnn3c2)cn1 [Example 288, (R)-4-(5-(4-(2-hydroxy-2-phenylacetyl)piperazin-1-yl)pyrazin-2-yl)-6-(1-methyl-1H-pyrazol-4-yl)pyrazolo[1,5-a]pyridine-3-carbonitrile] | 1940 nM
CO[C@H]1CCN(C(=O)N2CCN(c3cnc(-c4cc(-c5cnn(C)c5)cn5ncc(C#N)c45)cn3)CC2)C1 [Example 289, (S)-4-(5-(4-(3-methoxypyrrolidine-1-carbonyl)piperazin-1-yl)pyrazin-2-yl)-6-(1-methyl-1H-pyrazol-4-yl)pyrazolo[1,5-a]pyridine-3-carbonitrile] | 229 nM
Cn1cc(-c2cc(-c3ccc(N4CCN(C(=O)OC(C)(C)C)CC4)cc3)c3c(C#N)cnn3c2)cn1 [Example 290, tert-Butyl 4-(4-(3-cyano-6-(1-methyl-1H-pyrazol-4-yl)pyrazolo[1,5-a]pyridin-4-yl)phenyl)piperazine-1-carboxylate] | 3440 nM
Cn1cc(-c2cc(-c3ccc(N4CCNCC4)cc3)c3c(C#N)cnn3c2)cn1 [Example 291, 6-(1-methyl-1H-pyrazol-4-yl)-4-(4-(piperazin-1-yl)phenyl)pyrazolo[1,5-a]pyridine-3-carbonitrile dihydrochloride] | 918 nM
Cn1cc(-c2cc(-c3ccc(C4CCNCC4)cc3)c3c(C#N)cnn3c2)cn1 [Example 301, 6-(1-methyl-1H-pyrazol-4-yl)-4-(4-(piperidin-4-yl)phenyl)pyrazolo[1,5-a]pyridine-3-carbonitrile dihydrochloride] | 158 nM

Other lines, results leading:

IC50 | SMILES
1080 nM | COCC(=O)N1CCN(c2ccc(-c3cc(-c4cnn(C)c4)cn4ncc(C#N)c34)cc2)CC1 [Example 292, 4-(4-(4-(2-methoxyacetyl)piperazin-1-yl)phenyl)-6-(1-methyl-1H-pyrazol-4-yl)pyrazolo[1,5-a]pyridine-3-carbonitrile]
532 nM | Cn1cc(-c2cc(-c3ccc(N4CCN(C(=O)CO)CC4)cc3)c3c(C#N)cnn3c2)cn1 [Example 293, 4-(4-(4-(2-hydroxyacetyl)piperazin-1-yl)phenyl)-6-(1-methyl-1H-pyrazol-4-yl)pyrazolo[1,5-a]pyridine-3-carbonitrile hydrochloride]
2100 nM | Cn1cc(-c2cc(-c3ccc(N4CCN(C(=O)CC(C)(C)C)CC4)cc3)c3c(C#N)cnn3c2)cn1 [Example 294, 4-(4-(4-(3,3-dimethylbutanoyl)piperazin-1-yl)phenyl)-6-(1-methyl-1H-pyrazol-4-yl)pyrazolo[1,5-a]pyridine-3-carbonitrile]
720 nM | CC(=O)N1CCN(c2ccc(-c3cc(-c4cnn(C)c4)cn4ncc(C#N)c34)cc2)CC1 [Example 295, 4-(4-(4-acetylpiperazin-1-yl)phenyl)-6-(1-methyl-1H-pyrazol-4-yl)pyrazolo[1,5-a]pyridine-3-carbonitrile]
2350 nM | CN(C)CC(=O)N1CCN(c2ccc(-c3cc(-c4cnn(C)c4)cn4ncc(C#N)c34)cc2)CC1 [Example 296, 4-(4-(4-(2-(dimethylamino)acetyl)piperazin-1-yl)phenyl)-6-(1-methyl-1H-pyrazol-4-yl)pyrazolo[1,5-a]pyridine-3-carbonitrile]
189 nM | Cn1cc(-c2cc(-c3ccc(N4CCN(S(C)(=O)=O)CC4)cc3)c3c(C#N)cnn3c2)cn1 [Example 297, 6-(1-methyl-1H-pyrazol-4-yl)-4-(4-(4-(methylsulfonyl)piperazin-1-yl)phenyl)pyrazolo[1,5-a]pyridine-3-carbonitrile]
1830 nM | COC(=O)N1CCN(c2ccc(-c3cc(-c4cnn(C)c4)cn4ncc(C#N)c34)cc2)CC1 [Example 298, Methyl 4-(4-(3-cyano-6-(1-methyl-1H-pyrazol-4-yl)pyrazolo[1,5-a]pyridin-4-yl)phenyl)piperazine-1-carboxylate]
151 nM | CNS(=O)(=O)N1CCN(c2ccc(-c3cc(-c4cnn(C)c4)cn4ncc(C#N)c34)cc2)CC1 [Example 299, 4-(4-(3-cyano-6-(1-methyl-1H-pyrazol-4-yl)pyrazolo[1,5-a]pyridin-4-yl)phenyl)-N-methylpiperazine-1-sulfonamide]
2990 nM | Cn1cc(-c2cc(-c3ccc(C4CCN(C(=O)CC(C)(C)C)CC4)cc3)c3c(C#N)cnn3c2)cn1 [Example 302, 4-(4-(1-(3,3-dimethylbutanoyl)piperidin-4-yl)phenyl)-6-(1-methyl-1H-pyrazol-4-yl)pyrazolo[1,5-a]pyridine-3-carbonitrile]
1610 nM | C[C@H](O)Cn1cc(-c2cc(-c3ccc(N4CCN(C(=O)CC(C)(C)C)CC4)cc3)c3c(C#N)cnn3c2)cn1 [Example 304, (S)-4-(4-(4-(3,3-dimethylbutanoyl)piperazin-1-yl)phenyl)-6-(1-(2-hydroxypropyl)-1H-pyrazol-4-yl)pyrazolo[1,5-a]pyridine-3-carbonitrile]
1490 nM | C[C@@H](O)Cn1cc(-c2cc(-c3ccc(N4CCN(C(=O)CC(C)(C)C)CC4)cc3)c3c(C#N)cnn3c2)cn1 [Example 305, (R)-4-(4-(4-(3,3-dimethylbutanoyl)piperazin-1-yl)phenyl)-6-(1-(2-hydroxypropyl)-1H-pyrazol-4-yl)pyrazolo[1,5-a]pyridine-3-carbonitrile]
880 nM | C[C@@H](CO)Cn1cc(-c2cc(-c3ccc(N4CCN(C(=O)CC(C)(C)C)CC4)cc3)c3c(C#N)cnn3c2)cn1 [Example 306, (R)-4-(4-(4-(3,3-dimethylbutanoyl)piperazin-1-yl)phenyl)-6-(1-(3-hydroxy-2-methylpropyl)-1H-pyrazol-4-yl)pyrazolo[1,5-a]pyridine-3-carbonitrile]
864 nM | C[C@H](CO)Cn1cc(-c2cc(-c3ccc(N4CCN(C(=O)CC(C)(C)C)CC4)cc3)c3c(C#N)cnn3c2)cn1 [Example 307, (S)-4-(4-(4-(3,3-dimethylbutanoyl)piperazin-1-yl)phenyl)-6-(1-(3-hydroxy-2-methylpropyl)-1H-pyrazol-4-yl)pyrazolo[1,5-a]pyridine-3-carbonitrile]
4780 nM | Cn1ccc(-c2cc(-c3ccc(N4CCN(C(=O)CC(C)(C)C)CC4)cc3)c3c(C#N)cnn3c2)n1 [Example 309, 4-(4-(4-(3,3-dimethylbutanoyl)piperazin-1-yl)phenyl)-6-(1-methyl-1H-pyrazol-3-yl)pyrazolo[1,5-a]pyridine-3-carbonitrile]
1760 nM | Cc1cc(-c2cc(-c3ccc(N4CCN(C(=O)CC(C)(C)C)CC4)cc3)c3c(C#N)cnn3c2)n[nH]1 [Example 310, 4-(4-(4-(3,3-dimethylbutanoyl)piperazin-1-yl)phenyl)-6-(5-methyl-1H-pyrazol-3-yl)pyrazolo[1,5-a]pyridine-3-carbonitrile]
